# Read-outs that look alike come from different tables or passages of the source. Non-standard residues stand in square brackets, D forms with d. Residues, ends and D or L forms follow the SMILES beside them. Bip = N[C@@H](Cc1ccc(-c2ccccc2)cc1)C(=O)O
# How the values were obtained:
# [1] = tested on: P. aeruginosa PAO1; format: cell-based, Pseudomonas aeruginosa
# Method: (§1) Bacterial strains used in this study included Enterococcus faecium ATCC51559, Staphylococcus aureus USA300 LAC, Klebsiella pneumoniae ATCC 13883, Acinetobacter baumannii B2367-12, Pseudomonas aeruginosa PAO1, Enterobacter cloacae B2366-12 and Escherichia coli ATCC 25922, wherein the first six constituting the ESKAPE pathogens. Tryptic soy broth (TSB) for bacterial growth was obtained from BD Bioscience (Sparks, Md.).
# (§2) The antibacterial activity of peptides was evaluated using a standard broth microdilution protocol as described (Wang et al. (2012) Antimicrob. Agents Chemother., 56:845-856). In brief, 5 μl of each bacterium (stored at −80° C.) were inoculated into TSB medium (2 ml) and grown overnight. A second inoculation was made in the morning by delivering 10 μl of the overnight culture to a fresh TSB medium. After 2-3 hours growth at 37° C., 225 rpm, logarithmic phase bacterial cultures (OD600≈0.5) were diluted and partitioned into a 96-well polystyrene microplate with ˜10^5 colony forming units (CFU) per well (90 μl aliquots). After treatment with 10 μl of peptide solutions at various concentrations, microplates were incubated at 37° C. overnight and read on a ChroMate® 4300 Microplate Reader at 630 nm (GMI, Ramsey, Minn.). The medium was used as a blank where no bacteria should grow.
# [2] = tested on: A. baumannii B2367-12; format: cell-based, Acinetobacter baumannii
# Method: as §1, §2
# [3] = tested on: E. faecium ATCC51559; format: cell-based, Enterococcus faecium
# Method: as §1, §2
# [4] = tested on: E. cloacae B2366-12; format: cell-based, Enterobacter cloacae
# Method: as §1, §2
# [5] = tested on: S. aureus USA300 LAC; format: cell-based, Staphylococcus aureus
# Method: as §1, §2
# [6] = tested on: E. coli ATCC 25922; format: cell-based, Escherichia coli
# Method: as §1, §2
# [7] = tested on: C. glabrata ATCC 2001; format: cell-based, Candida glabrata; conditions: ATCC 2001, 48 h
# Method: (§3) Fungal strains used in this study include Candida albicans ATCC 10231, C. glabrata ATCC 2001 and C. tropicalis ATCC 13803. The fungi were grown in Remel Dex broth (Thermo Fisher Scientific, KS). Antifungal assays were conducted essentially as described for antibacterial assays above, except for a higher starting density at an OD600 0.02 and a longer incubation time of ˜48 hours prior to microplate reading (Mishra et al. (2015) RSC Advances 5:59758-59769).
# [8] = tested on: C. tropicalis ATCC 13803; format: cell-based, Candida tropicalis; conditions: ATCC 13803, 48 h
# Method: as §3
# [9] = tested on: B. subtilis 168; format: cell-based, Bacillus subtilis
# Method: (§4) The bacterial strains used here included Gram-positive bacteria Staphylococcus aureus USA300 LAC, Staphylococcus epidermidis 1457, Bacillus subtilis 168, and Gram-negative Escherichia coli K12. Clinical strains of S. aureus, including Mu50, UAMS-1 and Newman, were also evaluated.
# (§5) The antimicrobial activity of peptides was evaluated using a standard broth microdilution protocol (Wang, G. (2008) J. Biol. Chem., 283:32637-32643). In brief, exponential phase bacteria at 10^6 CFU were incubated with serially diluted peptides overnight for ˜20 hours at 37° C. The plates were read on a ChroMate® 4300 Microplate Reader at 630 nm (GMI, Ramsey, Minn.). […] In addition, the effects of human serum (up to 10%), pH (6.8, 7.4 and 8.0) and 150 mM sodium chloride (NaCl) on MICs against S. aureus USA300 were also evaluated (Mishra et al. (2015) RSC Advances 5:59758-59769).
# [10] = tested on: S. aureus USA300; format: cell-based, Staphylococcus aureus
# Method: as §4, §5
# [11] = tested on: S. aureus UAMS-1; format: cell-based, Staphylococcus aureus
# Method: as §4, §5
# [12] = tested on: S. aureus Mu50; format: cell-based, Staphylococcus aureus
# Method: as §4, §5
# [13] = tested on: S. aureus Newman; format: cell-based, Staphylococcus aureus
# Method: as §4, §5
# [14] = tested on: Candida albicans ATCC 10231; format: cell-based; conditions: ATCC 10231, 48 h
# Method: as §3
# [15] = MTS cytotoxicity assay; format: cell-based; conditions: human
# Method: (§6) HeLa CCL-2 epithelial adenocarcinoma cells from American Type Culture Collection (ATCC) were maintained in DMEM high glucose media with 4 mM L-glutamine (NyClone) and 100 U/mL penicillin, 100 μg/mL streptomycin (pen/strep) (Life Technologies), and 10% (v/v) inactivated fetal bovine serum (FBS) (NyClone). Cells were grown in 5% CO2 at 37° C. and were detached from the culturing dish at 80% confluency using 0.025% trypsin-EDTA (NyClone) treatment. Peptide influence on the cell viability was estimated by using the MTS assay according to the manufacturer's protocol (MTS, CellTiter96® AQ One Solution Cell Proliferation Assay, Promega) with minor modifications and as described elsewhere (Mishra et al. (2015) RSC Advances 5:59758-59769). In short, cells were cultured in flat bottomed 96 well microtiter plates (Corning Life Science) at a seeding density of 20,000 cells/well. At confluence ˜100% achieved after 20-24 hours of cultivation, the cells were washed twice with 100 μL Dulbecco's Phosphate Buffered Saline (Life Technologies). Further, 90 μL of DMEM media with 10% FBS, pen/step was added before exposure to 10 μL of the peptide solution in the concentration range 12.5-100 μM. Plates were incubated at 37° C. After 1 hour, 10 μL MTS, CellTiter96® was added. Plates were further incubated for another 2 hours at 37° C. and finally, the absorbance was measured on ChroMate® reader (Awareness Technology) at 492 nm. Culture medium and 0.2% SDS were used as negative and positive controls, respectively.
# Human skin HaCaT (immortalized keratinocyte from AddexBio, T0020001) and kidney HEK293 cells were also cultivated for cytotoxicity evaluation of the peptides in a similar manner.
# [16] = tested on: E. coli K12; format: cell-based, Escherichia coli; conditions: K12
# Method: as §4, §5
# [17] = Hemolytic assay; format: cell-based; conditions: red blood cells, hemolysis
# Method: Hemolytic analysis of selected peptides was performed using an established protocol (Mishra et al. (2015) RSC Advances 5:59758-59769). Briefly, human blood cells (UNMC Blood Bank) were washed three times with phosphate buffer saline (PBS) and diluted to a 2% solution. After peptide treatment, incubation at 37° C. for one hour, and centrifugation at 13,000 rpm, aliquots of the supernatant were transferred to a fresh 96-well microplate. To assess peptide cytotoxicity, the amount of hemoglobin released was measured at 545 nm. The percent lysis was calculated by assuming 100% release when human blood cells were treated with 1% TRITON™ X-100, and 0% release when incubated with PBS buffer. The hemolytic assays using chicken, bovine, and porcine blood cells (Lampire Biological Laboratories, Inc.) were performed in the same manner.
# [18] = MTS cytotoxicity assay; format: cell-based; conditions: human, HeLa CCL-2 cells
# Method: as §6
# [19] = tested on: S. aureus USA300; format: cell-based, Staphylococcus aureus; conditions: USA300
# Method: The minimal bactericidal concentration (MBC) was determined by plating 50 μl of the content in the clear wells of the above MIC assays. MBC was determined on the petri dishes without bacterial colony formation after overnight growth (Wang et al. (2012) Biochemistry 51:653-664).
# [20] = tested on: S. epidermidis 1457; format: cell-based, Staphylococcus epidermidis
# Method: as §4, §5
structure (smiles),measurement,setting,value
CC[C@H](C)[C@H](NC(=O)[C@H](CCCNC(=N)N)NC(=O)[C@H](CCC(N)=O)NC(=O)[C@@H](NC(=O)[C@@H](NC(=O)[C@H](CCCNC(=N)N)NC(=O)[C@H](CCCCN)NC(=O)[C@H](Cc1ccccc1)NC(=O)[C@@H](N)CS)[C@@H](C)CC)C(C)C)C(=O)N[C@@H](CCCCN)C(=O)N[C@@H](CC(=O)O)C(=O)N[C@@H](Cc1ccccc1)C(=O)N[C@@H](CC(C)C)C(=O)N[C@@H](CCCNC(=N)N)C(=O)N[C@@H](CC(N)=O)C(=O)N[C@@H](CC(C)C)C(=O)N[C@H](C(N)=O)C(C)C [CysFK-16] (H-CFKRIVQRIKDFLRNLV-NH2; N-terminus and C-terminus assumed),MIC PA,[1],> 50 µM
same,MIC AB,[2],25 µM
same,MIC EF,[3],6.25 µM
same,MIC ECl,[4],> 50 µM
same,MIC SA,[5],18 µM
same,MIC EC,[6],> 50 µM
"CC(C)C[C@H](NC(=O)[C@H](CC(N)=O)NC(=O)[C@H](CCCNC(=N)N)NC(=O)[C@@H](CC(C)C)NC(=O)[C@H](Cc1ccc(-c2ccccc2)cc1)NC(=O)[C@H](CC(=O)O)NC(=O)[C@H](CCCCN)NC(=O)[C@@H](CC(C)C)NC(=O)[C@H](CCCNC(=N)N)NC(=O)[C@H](CCC(N)=O)NC(=O)[C@@H](NC(=O)[C@@H](CC(C)C)NC(=O)[C@H](CCCNC(=N)N)NC(=O)[C@H](CCCCN)NC(=O)[C@H](Cc1ccc(-c2ccccc2)cc1)NC(=O)CN)C(C)C)C(=O)N[C@H](C(N)=O)C(C)C [Merecidin, reference compound] (H-G[Bip]KR[dL]VQR[dL]KD[Bip][dL]RNLV-NH2; N-terminus and C-terminus assumed)",MIC PA,[1]; PAO1,6.25 ± 0 µM
same,MIC AB,[2]; B2367-12,3.1 ± 0 µM
same,MIC EF,[3]; ATCC51559,≤3.1 µM
same,MIC ECl,[4]; B2366-12,6.25 ± 0 µM
same,MIC SA,[5]; USA300,3.1 ± 0 µM
same,MIC EC,[6]; ATCC 25922,3.1 ± 0 µM
"CC[C@H](C)[C@H](NC(=O)[C@H](CCCNC(=N)N)NC(=O)[C@H](CCCCN)NC(=O)[C@H](CC(C)C)NC(=O)[C@H](Cc1c[nH]c2ccccc12)NC(=O)[C@H](Cc1c[nH]c2ccccc12)NC(=O)[C@@H](N)Cc1c[nH]c2ccccc12)C(=O)N[C@@H](Cc1c[nH]c2ccccc12)C(N)=O [TetraF2W-KR, WWWLKRIW] (H-WWWLKRIW-NH2; N-terminus and C-terminus assumed)",MIC Candida glabrata,[7],12.5 µM
same,MIC Candida tropicalis,[8],3.1 to 6.2 µM
same,MIC B. subtilis 168,[9],6.2 µM
same,change in MIC on drop of pH from 8 to 6.8,[10]; S. aureus USA300,two-fold
same,Antimicrobial activity (MIC) 150 mM NaCl,[10]; USA300,3.1 µM
same,Antimicrobial activity (MIC) USA300,[10]; USA300,3.1 µM
same,MIC S. aureus USA300,[10]; USA300,3.1 µM
same,Antimicrobial activity (MIC) pH 6.8,"[10]; USA300, pH 6.8",6.2 μM
same,Antimicrobial activity (MIC) Normal medium (pH 7.4),"[10]; USA300, pH 7.4",3.1 μM
same,Antimicrobial activity (MIC) pH 8,"[10]; USA300, pH 8",3.1 μM
same,Antimicrobial activity (MIC) UAMS-1,[11],6.2 µM
same,Antimicrobial activity (MIC) Mu50,[12],6.2 µM
same,Antimicrobial activity (MIC) Newman,[13],3.1 to 6.2 µM
same,MIC Candida albicans,[14],12.5 µM
same,CC50 at 1 hour,[15]; HEK293 cells,55 µM
same,CC50 at 1 hour,[15]; HaCaT cells,60 µM
same,MIC E. coli K12,[16],12.5 to 25 µM
same,CC50 at 1 hour,"[17]; chicken, read-out: LC50 Chicken RBCs",35 µM
same,CC50 at 1 hour,"[17]; human, read-out: LC50 Human RBCs",30 µM
same,CC50 at 1 hour,"[17]; pig, read-out: LC50 Porcine RBCs",50 µM
same,CC50 at 1 hour,[18],100 µM
same,MBC S. aureus USA300,[19],12.5 µM
same,MIC S. epidermidis 1457,[20],12.5 µM
